Data from US20160264523A1, “CONJUGATE COMPRISING FOLIC ACID AND INDOLE-3-CARBINOL FOR MEDICAL USE” (Dom Terry International S.R.L., priority 2013, published 2016).

Columns and labels:
[1] = ABTS cationic free radical discoloration assay (antioxidant activity); parameters: key: TEAC: mM Trolox equivalent to 1 mM tested compound; settings: TEAC = concentration of Trolox having the same antioxidant ability of the tested compound at 1 mM
Description: The cationic free radical ABTS+° discoloration assay assesses the scavenging ability of an antioxidant against a preformed cationic radical (ABTS^+°) compared to Trolox, a hydrosoluble analogue of Vitamin E.

[2] = tested on: inducible nitric oxide synthetase (iNos) activity in J774A.1 macrophage cells stimulated by LPS; experiment: Anti-inflammatory activity: production of nitrites and release of NO; assay type: cell-based; settings: 24 h, J774A.1 macrophages stimulated with LPS of E. coli, n=5
Method: I3C, conjugate derivatives free from folic acid (PEG-I3C), and folate conjugates F-PEG-I3C, F-PEG-AD-(I3C)2, and F-PEG-βGlu-(I3C)2 were tested for their anti-inflammatory activity against the inducible nitric oxide synthetase (iNos) activity in J774A.1 macrophage cells stimulated by LPS and assessing the production of nitrites and the release of NO.
The PEG-I3C conjugates, free from folic acid, show a lower activity, thus indicating a real targeting effect of the folic acid molecule on the activated macrophage cells. […] The data are expressed as the inhibition percentage±s.e.m. vs the production of nitrites during 24 h by J774A.1 macrophage cells treated with LPS alone.

[3] = tested on: HT-29 (human colon adenocarcinoma); experiment: Cytotoxic activity, cell growth inhibition; assay type: cell-based; settings: HT-29 cells; n=4; read-out: IC50, concentration that inhibits the 50% cell growth compared to control cultures
Method: (§1) The studies of cytotoxic activity were carried out on three human cell lines: HT-29 (human colon adenocarcinoma), MCF-7 (human breast adenocarcinoma), and KB-3-1 (human oropharyngeal carcinoma), which cells are characterized by an overexpression of folic acid (FR+) receptors. […], conjugates free from folic acid (PEG-[…]), and the folate conjugates F-PEG-I3C, F-PEG-AD-(I3C)2, and F-PEG-βGlu-(I3C)2 were tested.

[4] = tested on: KB-3-1 (human oropharyngeal carcinoma); experiment: Cytotoxic activity, cell growth inhibition; assay type: cell-based; settings: KB-3-1 cells (FR+); n=4; read-out: IC50, concentration that inhibits the 50% cell growth compared to control cultures
Method: as §1

[5] = tested on: MCF-7 (human breast adenocarcinoma); experiment: Cytotoxic activity, cell growth inhibition; assay type: cell-based; settings: MCF-7 cells; n=4; read-out: IC50, concentration that inhibits the 50% cell growth compared to control cultures
Method: as §1

[6] = tested on: collagen-induced platelet aggregation; experiment: Platelet antiaggregating activity on platelet-enriched plasma; assay type: cell-based
Method: The platelet anti-aggregating effect induced by a series of mediators was tested on platelet-enriched plasma samples.

[7] = tested on: tumor cells that are positive to the estrogen receptor; settings: a number of in vitro and in vivo studies (background); cited from earlier work

For `COc1ccc([C@@H]2CC(=O)c3c(O)cc(O[C@@H]4O[C@H](CO[C@@H]5O[C@@H](C)[C@H](O)[C@@H](O)[C@H]5O)[C@@H](O)[C@H](O)[C@H]4O)cc3O2)cc1O` [Hesperidin], the “ABTS assay (TEAC)” value [1] was 0.5 ± 0.09.
For “Indole-3-Carbinol-PEG600-Indole-3-Carbinol [I3C-PEG600-I3C]”, the “Nitrites release inhibition (% vs LPS)” value ([2]; 1 μg/mL) was 32.2 ± 1.4 %, the “Nitrites release inhibition (% vs LPS)” value ([2]; 10 μg/mL) was 45.7 ± 1.7 % and the “Nitrites release inhibition (% vs LPS)” value ([2]; 100 μg/mL) was 84.3 ± 3.8 %. The “ABTS assay (TEAC)” value [1] was 5.8 ± 0.41.
With `O=c1cc(-c2ccc(O)cc2)oc2cc(O)cc(O)c12` [Apigenin] the “ABTS assay (TEAC)” value [1] was 0.2 ± 0.01.
For PEG550-Indole-3-Carbinol [PEG550-I3C], the “Nitrites release inhibition (% vs LPS)” value ([2]; 1 μg/mL) was 12.5 ± 0.8%, the “Nitrites release inhibition (% vs LPS)” value ([2]; 10 μg/mL) was 34.1 ± 1.2 % and the “Nitrites release inhibition (% vs LPS)” value ([2]; 100 μg/mL) was 72.5 ± 2.4 %. For the same molecule, the “ABTS assay (TEAC)” value [1] was 4.2 ± 0.26.
`OCc1c[nH]c2ccccc12` [Compound I3C, Indole-3-carbinol] gave an IC50 [3] of 45.1 ± 1.7 µM, an IC50 [4] of 93 ± 2.1 µM and an IC50 [5] of 30 ± 0.7 µM. For the same molecule, the “Nitrites release inhibition (% vs LPS)” value ([2]; 1 μg/mL) was 10.0 ± 1.1%, the “Nitrites release inhibition (% vs LPS)” value ([2]; 10 μg/mL) was 20.0 ± 0.9 % and the “Nitrites release inhibition (% vs LPS)” value ([2]; 100 μg/mL) was 70.1 ± 1.2 %. For the same molecule, the platelet aggregation inhibition ([6]; 3 μM) was 70%, the platelet aggregation inhibition ([6]; 6 μM) was 73% and the platelet aggregation inhibition ([6]; 12 μM) was 78%. The platelet aggregation inhibition ([6]; 25 μM) was 79%, the “ABTS assay (TEAC)” value [1] was 3.8 ± 0.12 and the “inhibition of the development of tumor cells positive to the estrogen receptor” value [7] was “up to 90%”.
In the case of Tocopherol, the “ABTS assay (TEAC)” value [1] is reported as 2.1 ± 0.07.
In the case of `O=C1C[C@@H](c2ccc(O)cc2)Oc2cc(O)cc(O)c21` [Naringenin], the “ABTS assay (TEAC)” value [1] is reported as 1.4 ± 0.03.
In the case of `C[C@@H]1O[C@@H](O[C@@H]2[C@@H](O)[C@H](OCCc3ccc(O)c(O)c3)O[C@H](CO)[C@H]2OC(=O)/C=C/c2ccc(O)c(O)c2)[C@H](O)[C@H](O)[C@H]1O` [Verbascoside], the “ABTS assay (TEAC)” value [1] is reported as 5.3 ± 0.22.
With `O=C(O)c1ccc(O)c(O)c1` [3,4-Dihydroxybenzoic acid] the “ABTS assay (TEAC)” value [1] was 4.6 ± 0.18.
In the case of `O=c1cc(-c2ccc(O)c(O)c2)oc2cc(O)cc(O)c12` [Luteolin], the “ABTS assay (TEAC)” value [1] is reported as 2.8 ± 0.09.
In the case of `O=C(O)/C=C/c1ccc(O)c(O)c1` [Caffeic acid], the “ABTS assay (TEAC)” value [1] is reported as 5.8 ± 0.12.
With `C[C@@H]1O[C@@H](O[C@H]2[C@H](Oc3cc(O)c4c(c3)O[C@H](c3ccc(O)cc3)CC4=O)O[C@H](CO)[C@@H](O)[C@@H]2O)[C@H](O)[C@H](O)[C@H]1O` [Naringin] the “ABTS assay (TEAC)” value [1] was 0.5 ± 0.01.
